Measured values reported in patent US12662451B2, “Chemical compounds and uses thereof” (GLAXOSMITHKLINE INTELLECTUAL PROPERTY (NO.4) LIMITED, priority 2023, dated 2026).
Like-named read-outs stand apart in the source and are kept apart here.

Assays:
[1] = Cell culture media unbound percentage and stability by rapid equilibrium dialysis (Example C); type: in vitro ADME; conditions: bovine, cell assay medium (RPMI-1640 with 10% fetal bovine serum), pH 7.4, rapid equilibrium dialysis, 4 hours at 37° C., read-out: Cell Culture Media Binding (% unbound)
In short: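 Percent unbound in cell assay medium came from the LC-MS/MS receiver:donor peak area ratio, with stability taken as the 240 min over 0 min ratio. Set-up: 1 μM nominal compound in medium dialysed against pH 7.4 PBS (100 mM phosphate, 150 mM NaCl), 4 h, 37° C, shaken, in triplicate.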

[2] = target: T1, recombinant full-length WRN protein (1-1432) (Homo sapiens, UniProt Q14191); experiment: WRN unwinding activity, fluorogenic 384-well assay (Example A); type: biochemical; conditions: WRN unwinding activity, 4 hr; Table 2; read-out: 4 hr UNW pIC50 (converted)
T1 construct: recombinant full-length WRN protein (1-1432)
In short: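 Read-out is end-point unwinding of a fluorophore/quencher duplex (ex 525, em 598 nm) after 60 min with 200 μM ATP and 12 nM DNA (2× stocks), EDTA stop. Compound first sat 4 h with 200 pM WRN (2× stock) in pH 8.0 Tris buffer; four-parameter fit gives pIC50.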

[3] = system: SW48 human colorectal cancer cells (MSI-H cancer cells); experiment: SW48 cell viability, CellTiter-Glo, 120 hours (Example B); conditions: Homo sapiens
[4] = system: SW48 human colorectal cancer cells; experiment: Calculated free drug potency in SW48 cell assay, corrected with media free fraction (Example C); type: cell-based; conditions: Homo sapiens, SW48, SW48 pCC50 corrected with measured free fraction in cell assay media
In short: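 Free drug potency derives from correcting SW48 assay concentrations with the unbound fraction in medium. That fraction came from RED against pH 7.4 PBS, 1 μM nominal compound, 4 h at 37 °C, quantified by LC-MS/MS peak area ratios at T=240 versus T=0 min.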

[5] = SW48, 120 h, read-out: SW48 pCC50, SW48 cell viability, 120 hours incubation (converted), Table 2
[6] = SW48, read-out: SW48 pCC50, measured potency from Example B, as repeated in Table 3 (converted)

T1 sequence (Q14191 whole entry): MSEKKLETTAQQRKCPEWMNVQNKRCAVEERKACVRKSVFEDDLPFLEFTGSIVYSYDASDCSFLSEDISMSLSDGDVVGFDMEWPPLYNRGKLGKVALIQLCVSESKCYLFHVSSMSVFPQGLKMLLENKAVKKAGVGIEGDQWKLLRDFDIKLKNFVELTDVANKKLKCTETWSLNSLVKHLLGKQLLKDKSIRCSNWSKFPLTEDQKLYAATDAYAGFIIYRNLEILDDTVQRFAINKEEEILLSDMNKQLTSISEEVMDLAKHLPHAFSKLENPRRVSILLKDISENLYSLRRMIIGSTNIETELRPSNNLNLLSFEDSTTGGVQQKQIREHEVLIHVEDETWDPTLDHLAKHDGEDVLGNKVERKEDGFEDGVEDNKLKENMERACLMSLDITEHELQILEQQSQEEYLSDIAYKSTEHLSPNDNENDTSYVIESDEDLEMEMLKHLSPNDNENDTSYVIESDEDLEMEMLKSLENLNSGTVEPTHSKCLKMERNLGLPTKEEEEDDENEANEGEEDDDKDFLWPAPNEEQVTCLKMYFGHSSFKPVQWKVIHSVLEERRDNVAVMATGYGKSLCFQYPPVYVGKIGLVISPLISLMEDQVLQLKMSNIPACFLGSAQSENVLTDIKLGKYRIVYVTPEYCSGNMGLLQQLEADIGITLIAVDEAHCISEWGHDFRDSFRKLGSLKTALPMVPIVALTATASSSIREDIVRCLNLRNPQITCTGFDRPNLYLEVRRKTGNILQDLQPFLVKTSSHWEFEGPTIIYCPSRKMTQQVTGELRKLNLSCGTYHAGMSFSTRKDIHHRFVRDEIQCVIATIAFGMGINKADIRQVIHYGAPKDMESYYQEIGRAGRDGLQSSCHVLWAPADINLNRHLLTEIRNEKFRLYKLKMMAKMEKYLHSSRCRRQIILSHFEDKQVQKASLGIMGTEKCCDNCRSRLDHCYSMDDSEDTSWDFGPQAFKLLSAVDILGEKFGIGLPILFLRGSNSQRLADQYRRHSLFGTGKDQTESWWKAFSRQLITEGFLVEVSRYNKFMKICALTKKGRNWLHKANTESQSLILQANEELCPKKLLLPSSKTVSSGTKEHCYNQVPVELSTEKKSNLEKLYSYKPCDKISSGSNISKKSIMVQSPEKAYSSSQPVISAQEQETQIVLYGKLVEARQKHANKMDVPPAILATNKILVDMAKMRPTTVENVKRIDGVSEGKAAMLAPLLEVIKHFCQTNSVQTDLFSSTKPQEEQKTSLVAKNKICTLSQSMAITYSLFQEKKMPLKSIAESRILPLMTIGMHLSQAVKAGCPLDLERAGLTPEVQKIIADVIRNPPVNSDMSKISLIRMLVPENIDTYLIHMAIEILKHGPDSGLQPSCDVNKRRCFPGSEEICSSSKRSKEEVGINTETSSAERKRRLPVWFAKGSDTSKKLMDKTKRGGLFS

Compound | fraction unbound at 4 h, 1 µM [1] | IC50 [2] | CC50 [3, 5] | CC50 [3, 6] | CC50 [4]
Cc1nc2cc(S(=O)(=O)N(C)c3ccc([C@H]4CCC[C@@H](C(=O)Nc5ccc(C(F)(F)F)cc5F)[C@@H]4C(=O)O)cc3)ncc2n1C [Example 125, (1R,2R,6S)-2-((2-fluoro-4-(trifluoromethyl)phenyl)carbamoyl)-6-(4-((N,2,3-trimethyl-3H-imidazo[4,5-c]pyridine)-6-sulfonamido)phenyl)cyclohexane-1-carboxylic acid] | 0.0433 | 2 nM | 1580 nM | 1580 nM | 69.2 nM
Cc1nc2cc(S(=O)(=O)N(C)c3ccc([C@H]4CCC[C@@H](C(=O)Nc5ccc(C(F)(F)F)cc5F)[C@@H]4C(=O)O)cc3)cc(F)c2n1C [Example 126, (1R,2R,6S)-2-((2-fluoro-4-(trifluoromethyl)phenyl)carbamoyl)-6-(4-((7-fluoro-N, 1,2-trimethyl-1H-benzo[d]imidazole)-5-sulfonamido)phenyl)cyclohexane-1-carboxylic acid] | 0.058 | 6.31 nM | 631 nM | 631 nM | 36.3 nM
Cc1nc2cc(S(=O)(=O)N(C)c3ccc([C@H]4CCC[C@@H](C(=O)Nc5ccc(C(F)(F)F)cc5F)[C@@H]4C(=O)O)cc3)c(F)cc2n1C [Example 127, (1R,2R,6S)-2-((2-fluoro-4-(trifluoromethyl)phenyl)carbamoyl)-6-(4-((6-fluoro-N,1,2-trimethyl-1H-benzo[d]imidazole)-5-sulfonamido)phenyl)cyclohexane-1-carboxylic acid] | 0.0443 | 3.98 nM | 1000 nM | 1000 nM | 44.7 nM
Cc1nc2c(F)c(S(=O)(=O)N(C)c3ccc([C@H]4CCC[C@@H](C(=O)Nc5ccc(C(F)(F)F)cc5F)[C@@H]4C(=O)O)cc3)ccc2n1C [Example 128, (1R,2R,6S)-2-((2-fluoro-4-(trifluoromethyl)phenyl)carbamoyl)-6-(4-((4-fluoro-N,1,2-trimethyl-1H-benzo[d]imidazole)-5-sulfonamido)phenyl)cyclohexane-1-carboxylic acid] | 0.0452 | 3.98 nM | 1000 nM | 1000 nM | 45.7 nM
Cc1nc2cc(S(=O)(=O)N(C)c3ccc([C@H]4CCC[C@@H](C(=O)Nc5ccc(C(F)(F)F)cc5F)[C@@H]4C(=O)O)cc3)cc(Cl)c2n1C [Example 129, (1R,2S,6R)-2-(4-((7-chloro-N,1,2-trimethyl-1H-benzo[d]imidazole)-5-sulfonamido)phenyl)-6-((2-fluoro-4-(trifluoromethyl)phenyl)carbamoyl)cyclohexane-1-carboxylic acid] | 0.0143 | 20 nM | 631 nM | 631 nM | 9.12 nM
CN(c1ccc([C@H]2CCC[C@@H](C(=O)Nc3ccc(C(F)(F)F)cc3F)[C@@H]2C(=O)O)cc1)S(=O)(=O)c1ccc2c(c1)nc(C1CC1)n2C [Example 130, (1R,2S,6R)-2-(4-((2-cyclopropyl-N,1-dimethyl-1H-benzo[d]imidazole)-5-sulfonamido)phenyl)-6-((2-fluoro-4-(trifluoromethyl)phenyl)carbamoyl)cyclohexane-1-carboxylic acid] | 0.0326 | 6.31 nM | 501 nM | 501 nM | 16.2 nM
CC(C)c1nc2cc(S(=O)(=O)N(C)c3ccc([C@H]4CCC[C@@H](C(=O)Nc5ccc(C(F)(F)F)cc5F)[C@@H]4C(=O)O)cc3)ccc2n1C [Example 132, (1R,2R,6S)-2-((2-fluoro-4-(trifluoromethyl)phenyl)carbamoyl)-6-(4-((2-isopropyl-N, 1-dimethyl-1H-benzo[d]imidazole)-5-sulfonamido)phenyl)cyclohexane-1-carboxylic acid] | 0.0349 | 12.6 nM | 631 nM | 631 nM | 21.9 nM
CCO[C@@H]1C[C@H](c2ccc(N(C)S(=O)(=O)c3ccc4c(c3)nc(N(C)C)n4C)cc2)[C@@H](C(=O)O)[C@H](C(=O)Nc2ccc(C(F)(F)F)cc2F)C1 [Example 139, (1R,2S,4R,6R)-2-(4-((2-(dimethylamino)-N,1-dimethyl-1H-benzo[d]imidazole)-5-sulfonamido)phenyl)-4-ethoxy-6-((2-fluoro-4-(trifluoromethyl)phenyl)carbamoyl)cyclohexane-1-carboxylic acid] | 0.0518 | 1.58 nM | 100 nM | 100 nM | 5.13 nM
CCO[C@@H]1C[C@H](c2ccc(N(C)S(=O)(=O)c3ccc4c(c3)ncn4C)cc2)[C@@H](C(=O)O)[C@H](C(=O)Nc2ccc(C(F)(F)F)cc2F)C1 [Example 140, (1R,2S,4R,6R)-2-(4-((N,1-dimethyl-1H-benzo[d]imidazole)-5-sulfonamido)phenyl)-4-ethoxy-6-((2-fluoro-4-(trifluoromethyl)phenyl)carbamoyl)cyclohexane-1-carboxylic acid] | 0.101 | 2.51 nM | 158 nM | 158 nM | 15.8 nM

Now from value to compound, other results behind:

fraction unbound at 4 h, 1 µM [1] | IC50 [2] | Compound | CC50 [3, 5] | CC50 [3, 6] | CC50 [4]
0.112 | 3.16 nM | CCO[C@@H]1C[C@H](c2ccc(N(C)S(=O)(=O)c3cnc4c(c3)nc(C)n4C)cc2)[C@@H](C(=O)O)[C@H](C(=O)Nc2ccc(C(F)(F)F)cc2F)C1 [Example 141, (1R,2R,4R,6S)-4-ethoxy-2-((2-fluoro-4-(trifluoromethyl)phenyl)carbamoyl)-6-(4-((N,2,3-trimethyl-3H-imidazo[4,5-b]pyridine)-6-sulfonamido)phenyl)cyclohexane-1-carboxylic acid] | 631 nM | 631 nM | 70.8 nM
0.176 | 3.98 nM | Cc1nc2cc(S(=O)(=O)N(C)c3ccc([C@H]4CCC[C@@H](C(=O)Nc5ccc(C(F)(F)F)nc5)[C@@H]4C(=O)O)cc3)ccc2n1C [Example 172, (1R,2R,6S)-2-((6-(trifluoromethyl)pyridin-3-yl)carbamoyl)-6-(4-((N,1,2-trimethyl-1H-benzo[d]imidazole)-5-sulfonamido)phenyl)cyclohexane-1-carboxylic acid] | 1260 nM | 1260 nM | 219 nM
0.0163 | 5.01 nM | Cc1nc2cc(S(=O)(=O)N(C)c3ccc([C@H]4CCC[C@@H](C(=O)Nc5ccc(C(F)(F)F)cc5)[C@@H]4C(=O)O)cc3)ccc2n1C [Example 173, (1R,2R,6S)-2-((4-(trifluoromethyl)phenyl)carbamoyl)-6-(4-((N,1,2-trimethyl-1H-benzo[d]imidazole)-5-sulfonamido)phenyl)cyclohexane-1-carboxylic acid] | 631 nM | 631 nM | 10.2 nM
0.237 | 1.58 nM | Cc1nc2cc(S(=O)(=O)N(C)c3ccc([C@H]4CCC[C@@H](C(=O)N[C@H]5CC[C@H](C(F)(F)F)CC5)[C@@H]4C(=O)O)cc3)ccc2n1C [Example 177, (1R,2R,6S)-2-(((1r,4R)-4-(trifluoromethyl)cyclohexyl)carbamoyl)-6-(4-((N,1,2-trimethyl-1H-benzo[d]imidazole)-5-sulfonamido)phenyl)cyclohexane-1-carboxylic acid] | 1580 nM | 1580 nM | 372 nM
0.146 | 2.51 nM | Cc1nc2cc(S(=O)(=O)N(C)c3ccc([C@H]4CCC[C@@H](C(=O)Nc5ccc(C(F)F)cc5F)[C@@H]4C(=O)O)cc3)ccc2n1C [Example 179, (1R,2R,6S)-2-((4-(difluoromethyl)-2-fluorophenyl)carbamoyl)-6-(4-((N,1,2-trimethyl-1H-benzo[d]imidazole)-5-sulfonamido)phenyl)cyclohexane-1-carboxylic acid] | 1000 nM | 1000 nM | 145 nM
0.0357 | 3.98 nM | Cc1nc2cc(S(=O)(=O)N(C)c3ccc([C@H]4CCC[C@@H](C(=O)N[C@H]5CC[C@H](C(C)C)CC5)[C@@H]4C(=O)O)cc3)ccc2n1C [Example 180, (1R,2R,6S)-2-(((1r,4R)-4-isopropylcyclohexyl)carbamoyl)-6-(4-((N,1,2-trimethyl-1H-benzo[d]imidazole)-5-sulfonamido)phenyl)cyclohexane-1-carboxylic acid] | 631 nM | 631 nM | 22.4 nM
0.303 | 1.58 nM | Cc1nc2cc(S(=O)(=O)N(C)c3ccc([C@H]4CCC[C@@H](C(=O)Nc5ccc(C(C)(C)O)cc5F)[C@@H]4C(=O)O)cc3)ccc2n1C [Example 181, (1R,2R,6S)-2-((2-fluoro-4-(2-hydroxypropan-2-yl)phenyl)carbamoyl)-6-(4-((N,1,2-trimethyl-1H-benzo[d]imidazole)-5-sulfonamido)phenyl)cyclohexane-1-carboxylic acid] | 2000 nM | 2000 nM | 603 nM
